Reference: article PMC3303611 (Journal of Medicinal Chemistry, 2012)
Where two headings read alike, the source gives them in different places.

Tests used:
[1] = biological target: H3 receptor (Homo sapiens, UniProt Q9Y5N1); test: GTP-γ-S assay performed by the Psychoactive Drug Screening Program; format: biochemical
[2] = tested on: brain H3 receptors; test: PET imaging of [18F]9 in monkey; format: in vivo, rhesus monkey; conditions: [18F]9 Vt, two monkeys, ciproxifan pretreatment
[3] = biological target: rat H3 receptors; conditions: known, ref not given; cited from earlier work
[4] = tested on: human H3 receptors; conditions: human vs rat H3; known, ref not given; cited from earlier work

Chain of H3 receptor (Q9Y5N1 whole entry): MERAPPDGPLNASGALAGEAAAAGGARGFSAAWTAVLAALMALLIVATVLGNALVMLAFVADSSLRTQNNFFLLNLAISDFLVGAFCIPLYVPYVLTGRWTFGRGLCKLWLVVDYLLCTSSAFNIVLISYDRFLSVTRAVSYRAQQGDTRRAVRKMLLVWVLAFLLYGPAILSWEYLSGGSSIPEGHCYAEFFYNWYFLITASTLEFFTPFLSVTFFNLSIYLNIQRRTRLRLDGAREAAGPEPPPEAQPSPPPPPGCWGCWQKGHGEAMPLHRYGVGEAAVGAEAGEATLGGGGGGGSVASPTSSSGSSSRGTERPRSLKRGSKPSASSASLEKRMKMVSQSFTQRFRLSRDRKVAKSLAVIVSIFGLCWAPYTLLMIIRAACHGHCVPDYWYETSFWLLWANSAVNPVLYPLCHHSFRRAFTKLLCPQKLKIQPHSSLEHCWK

## C[C@@H]1CCCN1CCc1cc2cc(C(=O)c3ccc(F)cc3)ccc2o1 [Compound 9, (R)-(2-(2-(2-methylpyrrolidin-1-yl)ethyl)benzofuran-5-yl)(4-fluorophenyl)methanone]
[1]
  intrinsic activity: inverse agonists

## C[C@@H]1CCCN1CCc1cc2cc(C(=O)c3ccc([N+](=O)[O-])cc3)ccc2o1 [Compound 12, (R)-(2-(2-(2-Methylpyrrolidin-1-yl)ethyl)benzofuran-5-yl)(4-nitrophenyl)methanone]
[1]; GTP-γ-S assay, Psychoactive Drug Screening Program
  intrinsic activity: inverse agonists

## O=C(c1ccc(OCCCc2c[nH]cn2)cc1)C1CC1 [ciproxifan]
[2]; Cerebellum
  Mean Vt decrease: -26%
[2]; Frontal cortex
  Mean Vt decrease: -34%
[2]; Hippocampus
  Mean Vt decrease: -33%
[2]; Striatum
  Mean Vt decrease: -26%
[2]; Thalamus
  Mean Vt decrease: -33%
[3]
  Ki: 0.51 nM
[4]
  lower affinity for human H3 receptors than for rat H3 receptors: over 100 fold
